Results reported in US8071768B2, “Alkylquinoline and alkylquinazoline kinase modulators” (Janssen Pharmaceutica, N.V., priority 2005, dated 2011).
Where a name gives a salt, the structure may show the parent alone.

Legend:
[1] = molecular target: T1, TrkB (Homo sapiens, UniProt Q16620); assay: Trk B Fluorescence Polarization Kinase Assay; assay type: biochemical; settings: uncertainty ±10%
T1 construct: purchased Upstate 14-507M
Method in brief: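 The TrkB kinase reaction (50 nM enzyme, 20 ug/mL poly Glu4Tyr, 150 uM ATP, 5 mM MgCl2, 1% DMSO) ran 30 minutes at room temperature and was stopped with EDTA. Phosphorylation was detected by fluorescence-polarization displacement of a fluorescein phosphopeptide from an anti-phosphotyrosine antibody. IC50 came from a variable-slope sigmoidal fit of triplicates.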

[2] = molecular target: T2, isolated kinase domain of the human c-kit receptor (Homo sapiens, UniProt P10721); assay: c-Kit Fluorescence Polarization Kinase Assay; assay type: biochemical; settings: uncertainty ±10%; read-out: ckit IC50
T2 construct: isolated kinase domain of the human c-kit receptor; purchased ProQinase lot SP005
T2 sequence (P10721 589-937 limits assumed): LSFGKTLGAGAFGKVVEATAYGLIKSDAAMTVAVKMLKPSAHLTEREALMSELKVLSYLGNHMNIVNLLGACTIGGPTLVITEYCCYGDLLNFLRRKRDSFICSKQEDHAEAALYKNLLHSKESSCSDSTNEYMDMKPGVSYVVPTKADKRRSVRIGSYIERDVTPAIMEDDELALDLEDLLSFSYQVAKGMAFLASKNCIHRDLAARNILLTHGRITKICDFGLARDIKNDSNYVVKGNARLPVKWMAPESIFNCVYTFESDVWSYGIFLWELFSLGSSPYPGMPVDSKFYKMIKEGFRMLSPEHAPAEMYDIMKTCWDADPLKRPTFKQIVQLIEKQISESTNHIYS
Procedure: c-Kit Fluorescence Polarization Kinase Assay
The compounds of the present invention are also specific inhibitors of c-Kit. Selection of preferred compounds of Formula I for use as c-Kit inhibitors was performed in the following manner using an in vitro kinase assay to measure inhibition of the isolated kinase domain of the human c-kit receptor in a fluorescence polarization (FP) protocol. The c-kit assay utilized the fluorescein-labeled phosphopeptide and the anti-phosphotyrosine antibody included in the Panvera Phospho-Tyrosine Kinase Kit (Green) supplied by Invitrogen. When c-kit phosphorylated the poly Glu4Tyr, the fluorescein-labeled phosphopeptide was displaced from the anti-phosphotyrosine antibody by the phosphorylated poly Glu4Tyr, thus decreasing the FP value. The c-kit kinase reaction was incubated at room temperature for 45 minutes under the following conditions: 1 nM c-kit (ProQinase, lot SP005), 100 ug/mL poly Glu4Tyr, 50 uM ATP, 5 mM MgCl2, 1 mM DTT, 0.01% Tween-20, 1% DMSO or compound in […], pH 7.5. The kinase reaction was stopped with the addition of EDTA. The fluorescein-labeled phosphopeptide and the anti-phosphotyrosine antibody were added and incubated for 30 minutes at room temperature and fluorescence polarization was read. Data points were an average of triplicate samples. Inhibition and IC50 data analysis were done with GraphPad Prism using a non-linear regression fit with a multiparamater, sigmoidal dose-response (variable slope) equation.

T1 sequence (Q16620 32-822): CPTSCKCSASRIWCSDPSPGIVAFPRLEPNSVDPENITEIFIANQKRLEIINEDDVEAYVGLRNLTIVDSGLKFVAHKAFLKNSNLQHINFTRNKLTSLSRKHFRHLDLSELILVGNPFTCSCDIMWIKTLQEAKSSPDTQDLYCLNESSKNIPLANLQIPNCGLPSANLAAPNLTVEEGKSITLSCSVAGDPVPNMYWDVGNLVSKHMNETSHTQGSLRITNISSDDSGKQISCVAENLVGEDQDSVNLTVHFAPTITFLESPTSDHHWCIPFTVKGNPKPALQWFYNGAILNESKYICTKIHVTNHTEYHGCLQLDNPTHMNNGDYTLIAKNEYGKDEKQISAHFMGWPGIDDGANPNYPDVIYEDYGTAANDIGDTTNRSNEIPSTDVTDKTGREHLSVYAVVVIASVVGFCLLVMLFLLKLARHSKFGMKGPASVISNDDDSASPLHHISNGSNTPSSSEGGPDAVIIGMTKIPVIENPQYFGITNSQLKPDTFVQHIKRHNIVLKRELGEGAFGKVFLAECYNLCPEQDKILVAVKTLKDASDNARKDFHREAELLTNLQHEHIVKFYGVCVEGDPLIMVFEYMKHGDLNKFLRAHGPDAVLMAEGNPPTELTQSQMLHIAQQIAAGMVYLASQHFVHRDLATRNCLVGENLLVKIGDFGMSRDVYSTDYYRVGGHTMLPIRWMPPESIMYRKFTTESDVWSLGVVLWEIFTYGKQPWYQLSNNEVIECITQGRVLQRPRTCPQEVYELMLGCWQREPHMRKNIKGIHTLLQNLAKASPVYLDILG

Structure (SMILES) | IC50 [1] [nM] | IC50 [2] [nM]
COc1cc2ncnc(C3CCN(C(=O)Nc4ccc(OC(C)C)cc4)CC3)c2cc1OC [Compound 1, 4-(6,7-Dimethoxy-quinazolin-4-yl)-piperidine-1-carboxylic acid (4-isopropoxy-phenyl)-amide hydrochloride] | 220 | 82.5
COc1cc2ncnc(C3CCN(C(=O)Nc4ccc(C(C)C)cc4)CC3)c2cc1OC [Compound 4, 4-(6,7-Dimethoxy-quinazolin-4-yl)-piperidine-1-carboxylic acid (4-isopropyl-phenyl)-amide] | – | 610
COc1cc2ncnc(C3CCN(C(=O)Nc4ccc(OC5CCC5)nc4)CC3)c2cc1OC [Compound 17, 4-(6,7-Dimethoxy-quinazolin-4-yl)-piperidine-1-carboxylic acid (6-cyclobutoxy-pyridin-3-yl)-amide] | 500 | 77.5
COc1cc2ncnc(C3CCN(C(=O)Nc4ccc(N5CCOCC5)cc4)CC3)c2cc1OC [Compound 18, 4-(6,7-Dimethoxy-quinazolin-4-yl)-piperidine-1-carboxylic acid (4-morpholin-4-yl-phenyl)-amide] | 19200 | 158
O=C1CCCN1CCCOc1ccc2c(C3CCN(C(=O)Nc4ccc(N5CCOCC5)cc4)CC3)ncnc2c1 [Compound 68, 4-{7-[3-(2-Oxo-pyrrolidin-1-yl)-propoxy]-quinazolin-4-yl}-piperidine-1-carboxylic acid (4-morpholin-4-yl-phenyl)-amide] | > 20000 | 28
O=C1CCCN1CCCOc1ccc2c(C3CCN(C(=O)Nc4ccc(N5CCOCC5)nc4)CC3)ncnc2c1 [Compound 72, 4-{7-[3-(2-Oxo-pyrrolidin-1-yl)-propoxy]-quinazolin-4-yl}-piperidine-1-carboxylic acid (6-morpholin-4-yl-pyridin-3-yl)-amide] | 2000 | 23
CC(C)Oc1ccc(NC(=O)N2CCC(c3ncnc4ccc(OCCCN5CCN(C)CC5)cc34)CC2)cc1 [Compound 76, 4-{6-[3-(4-Methyl-piperazin-1-yl)-propoxy]-quinazolin-4-yl}-piperidine-1-carboxylic acid (4-isopropoxy-phenyl)-amide] | 7900 | 282
CN1CCN(CCCOc2ccc3c(C4CCN(C(=O)Nc5ccc(N6CCOCC6)nc5)CC4)ncnc3c2)CC1 [Compound 80, 4-{7-[3-(4-Methyl-piperazin-1-yl)-propoxy]-quinazolin-4-yl}-piperidine-1-carboxylic acid (6-morpholin-4-yl-pyridin-3-yl)-amide] | 9100 | 160
O=C1CCCN1CCOc1ccc2c(C3CCN(C(=O)Nc4ccc(N5CCOCC5)nc4)CC3)ncnc2c1 [Compound 83, 4-{7-[2-(2-Oxo-pyrrolidin-1-yl)-ethoxy]-quinazolin-4-yl}-piperidine-1-carboxylic acid (6-morpholin-4-yl-pyridin-3-yl)-amide] | 8500 | 25
CS(=O)(=O)NCCCOc1ccc2c(C3CCN(C(=O)Nc4ccc(OC5CCCC5)nc4)CC3)ncnc2c1 [Compound 88, 4-[7-(3-Methanesulfonylamino-propoxy)-quinazolin-4-yl]-piperidine-1-carboxylic acid (6-cyclopentyloxy-pyridin-3-yl)-amide] | 400 | 11
O=C1CCCN1CCCOc1ccc2c(C3CCN(C(=O)Nc4ccc(N5CCCC5)nc4)CC3)ncnc2c1 [Compound 89, 4-{7-[3-(2-Oxo-pyrrolidin-1-yl)-propoxy]-quinazolin-4-yl}-piperidine-1-carboxylic acid (6-pyrrolidin-1-yl-pyridin-3-yl)-amide] | 2700 | 13
O=C(Nc1ccc(N2CCCC2)cc1)N1CCC(c2ncnc3cc(OCCN4CCC[C@H]4CO)ccc23)CC1 [Compound 152, (S)-4-{7-[2-(2-Hydroxymethyl-pyrrolidin-1-yl)-ethoxy]-quinazolin-4-yl}-piperidine-1-carboxylic acid (4-pyrrolidin-1-yl-phenyl)-amide] | 32700 | –
O=C(Nc1ccc(N2CCOCC2)cc1)N1CCC(c2ncnc3cc(OCCN4CCC[C@H]4CO)ccc23)CC1 [Compound 153, (S)-4-{7-[2-(2-Hydroxymethyl-pyrrolidin-1-yl)-ethoxy]-quinazolin-4-yl}-piperidine-1-carboxylic acid (4-morpholin-4-yl-phenyl)-amide] | > 42000 | –
CC(=O)N1CC[C@@H](Oc2ccc3c(C4CCN(C(=O)Nc5ccc(N6CCCC6)cc5)CC4)ncnc3c2)C1 [Compound 154, (R)-4-[7-(1-Acetyl-pyrrolidin-3-yloxy)-quinazolin-4-yl]-piperidine-1-carboxylic acid (4-pyrrolidin-1-yl-phenyl)-amide] | > 42000 | –
CNC(=O)C1CCN(c2ccc3c(C4CCN(C(=O)Nc5ccc(N6CCCC6)cc5)CC4)ncnc3c2)CC1 [Compound 155, 4-[7-(4-Carboxylic acid methylamide-piperidin-1-yl)-quinazolin-4-yl]-piperidine-1-carboxylic acid (4-pyrrolidin-1-yl-phenyl)-amide] | 11000 | –
CN1CCN(CCOc2ccc3c(C4CCN(C(=O)Nc5ccc(N6CCOCC6)cc5)CC4)ncnc3c2)CC1 [Compound 156, 4-{7-[2-(4-Methyl-piperazin-1-yl)-ethoxy]-quinazolin-4-yl}-piperidine-1-carboxylic acid (4-morpholin-4-yl-phenyl)-amide] | > 21000 | –
CN1CCN(CCOc2ccc3c(C4CCN(C(=O)Nc5ccc(N6CCCC6)cc5)CC4)ncnc3c2)CC1 [Compound 157, 4-{7-[2-(4-Methyl-piperazin-1-yl)-ethoxy]-quinazolin-4-yl}-piperidine-1-carboxylic acid (4-pyrrolidin-1-yl-phenyl)-amide] | 7050 | –
CN1CCN(CCCOc2ccc3c(C4CCN(C(=O)Nc5ccc(N6CCCC6)cc5)CC4)ncnc3c2)CC1 [Compound 158, 4-{7-[3-(4-Methyl-piperazin-1-yl)-propoxy]-quinazolin-4-yl}-piperidine-1-carboxylic acid (4-pyrrolidin-1-yl-phenyl)-amide] | 5000 | –
CN1CCN(c2ccc3c(C4CCN(C(=O)Nc5ccc(N6CCCC6)cc5)CC4)ncnc3c2)CC1 [Compound 159, 4-[7-(4-Methyl-piperazin-1-yl)-quinazolin-4-yl]-piperidine-1-carboxylic acid (4-pyrrolidin-1-yl-phenyl)-amide] | 7860 | –
CN1CCN(c2ccc3c(C4CCN(C(=O)Nc5ccc(N6CCCC6)nc5)CC4)ncnc3c2)CC1 [Compound 160, 4-[7-(4-Methyl-piperazin-1-yl)-quinazolin-4-yl]-piperidine-1-carboxylic acid (6-pyrrolidin-1-yl-pyridin-3-yl)-amide] | 6450 | –
O=C(Nc1ccc(N2CCCC2)cc1)N1CCC(c2ncnc3cc(OCCCN4CCC[C@H]4CO)ccc23)CC1 [Compound 161, (S)-4-{7-[3-(2-Hydroxymethyl-pyrrolidin-1-yl)-propoxy]-quinazolin-4-yl}-piperidine-1-carboxylic acid (4-pyrrolidin-1-yl-phenyl)-amide] | 6480 | –
CC(=O)N1CCC[C@H]1COc1ccc2c(C3CCN(C(=O)Nc4ccc(N5CCCC5)cc4)CC3)ncnc2c1 [Compound 162, (S)-4-[7-(1-Acetyl-pyrrolidin-2-ylmethoxy)-quinazolin-4-yl]-piperidine-1-carboxylic acid (4-pyrrolidin-1-yl-phenyl)-amide] | > 21000 | –
CC(=O)N1CCC(COc2ccc3c(C4CCN(C(=O)Nc5ccc(N6CCCC6)cc5)CC4)ncnc3c2)CC1 [Compound 163, 4-[7-(1-Acetyl-piperidin-4-ylmethoxy)-quinazolin-4-yl]-piperidine-1-carboxylic acid (4-pyrrolidin-1-yl-phenyl)-amide] | 4120 | –
